{"source": "patent US10610522B2", "about": "“Methods for retreating irritable bowel syndrome (IBS)” (Salix Pharmaceuticals, Inc., priority 2014, dated 2020)", "key": {"[1]": {"system": "C. difficile infection (CDI)", "test": "Double-blind non-inferiority trial rifaximin 400 mg TID vs vancomycin 125 mg QID, 10 days, C. difficile infection", "type": "in vivo, human", "description": "Criteria for entry into the trial were: • Age >=18 years old; • Had acute diarrhea at screening defined as >=3 unformed stools in the last 24 hours and at least one sign of enteric infection (fever, nausea, lose of appetite, vomiting, severe abdominal pain/discomfort); and • a positive C. diff stool toxin assay Endpoint:\nThe primary efficacy endpoint of the study was defined as the proportion of subjects achieving clinical success. Specifically, clinical success was defined as the absence of severe abdominal pain at Test of Cure (TOC), absence of fever (<38° C.) at TOC, and <3 unformed stools for two consecutive days at TOC.\nClinical success was defined as the: Absence of severe abdominal pain at TOC, absence of fever (<38° C.) at TOC, and <3 unformed stools for two consecutive days at TOC. Test of cure defined as Day 14+/−1 day.\nRecurrence was defined to be a diarrhea and a positive C. diff stool toxin assay that occurred after initial clinical success.\nGlobal cure of diarrhea was defined as subjects who were cured of diarrhea at TOC without recurrence at follow up.\nSubjects who completed the study without achieving clinical success were censored at Day 14"}, "CYP3A4": {"molecular_target": "CYP3A4 (Homo sapiens, UniProt P08684)", "sequence (P08684 whole entry)": "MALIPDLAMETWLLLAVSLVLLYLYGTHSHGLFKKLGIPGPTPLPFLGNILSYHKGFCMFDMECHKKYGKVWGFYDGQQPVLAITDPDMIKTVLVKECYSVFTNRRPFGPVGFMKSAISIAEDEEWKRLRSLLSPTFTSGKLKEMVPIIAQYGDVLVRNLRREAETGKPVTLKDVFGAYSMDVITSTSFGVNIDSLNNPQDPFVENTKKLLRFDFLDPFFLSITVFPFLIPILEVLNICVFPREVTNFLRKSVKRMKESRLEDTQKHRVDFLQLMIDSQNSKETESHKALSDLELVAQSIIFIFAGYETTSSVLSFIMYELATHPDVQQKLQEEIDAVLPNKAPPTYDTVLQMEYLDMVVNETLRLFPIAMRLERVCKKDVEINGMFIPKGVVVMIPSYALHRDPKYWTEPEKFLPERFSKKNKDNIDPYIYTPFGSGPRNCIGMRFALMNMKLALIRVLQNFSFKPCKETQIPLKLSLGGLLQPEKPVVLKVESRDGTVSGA", "test": "In vitro cytochrome P450 inhibition", "type": "biochemical", "details": "2 to 200 ng/mL"}, "[2]": {"details": "Rifaximin N = 117, Vancomycin N = 115"}, "[3]": {"details": "Rifaximin vs Vancomycin, at TOC"}, "[4]": {"details": "Rifaximin vs Vancomycin, treatment period"}, "[5]": {"details": "adjusting for concomitant medication usage, Rifaximin N = 109, Vancomycin N = 112"}, "[6]": {"details": "adjusting for concomitant medication usage, Rifaximin N = 117, Vancomycin N = 115"}, "[7]": {"details": "adjusting for concomitant medication usage, Rifaximin vs Vancomycin"}, "[8]": {"details": "after initial clinical success, Rifaximin N = 67, Vancomycin N = 73"}, "[9]": {"details": "all subjects, Rifaximin N = 117, Vancomycin N = 115"}, "[10]": {"details": "at TOC, Rifaximin N = 108, Vancomycin N = 111"}, "[11]": {"details": "at TOC, Rifaximin N = 117, Vancomycin N = 115"}, "[12]": {"details": "cured at TOC without recurrence at follow up, Rifaximin N = 117, Vancomycin N = 115"}, "[13]": {"details": "subgroup Age <65, at TOC, Rifaximin N = 69, Vancomycin N = 62"}, "[14]": {"details": "subgroup Age >=65, at TOC, Rifaximin N = 39, Vancomycin N = 49"}, "[15]": {"details": "subgroup Female, at TOC, Rifaximin N = 68, Vancomycin N = 64"}, "[16]": {"details": "subgroup Male, at TOC, Rifaximin N = 40, Vancomycin N = 47"}}}
{"smiles": "CO[C@H]1/C=C/O[C@@]2(C)Oc3c(C)c(O)c4c(O)c(c5c(nc6cc(C)ccn65)c4c3C2=O)NC(=O)/C(C)=C\\C=C\\[C@H](C)[C@H](O)[C@@H](C)[C@@H](O)[C@@H](C)[C@H](OC(C)=O)[C@@H]1C", "note": "[Rifaximin, (2S,16Z,18E,20S,21S,22R,23R,24R,25S,26S,27S,28E)-5,6,21,23,25 Pentahydroxy-27-methoxy-2,4,11,16,20,22,24,26-octamethyl-2,7-(epoxypentadeca-(1,11,13)trienimino) benzofuro (4,5-e) pyrido(1,2-a) benzimidazole-1,15(2H)-dione,25-acetate]", "values": [{"measurement": "Continuing Illness No: % of subjects", "setting": "[1]; [2]", "result": 77, "unit": "%"}, {"measurement": "Continuing Illness No: number of subjects", "setting": "[1]; [2]", "result": 90}, {"measurement": "Continuing Illness Yes: % of subjects", "setting": "[1]; [2]", "result": 23, "unit": "%"}, {"measurement": "Continuing Illness Yes: number of subjects", "setting": "[1]; [2]", "result": 27}, {"measurement": "Global Cure of Diarrhea No: % of subjects", "setting": "[1]; [2]", "result": 29, "unit": "%"}, {"measurement": "Global Cure of Diarrhea No: number of subjects", "setting": "[1]; [2]", "result": 34}, {"measurement": "Recurrence Rate per Person-Year Exposure", "setting": "[1]; [2]", "result": 0.613}, {"measurement": "Continuing Illness: Treatment Difference", "setting": "[1]; Rifaximin vs Vancomycin", "result": "−9.2", "unit": "%"}, {"measurement": "Global Cure of Diarrhea: Treatment Difference", "setting": "[1]; Rifaximin vs Vancomycin", "result": "−3.0", "unit": "%"}, {"measurement": "Recurrence of CDI: Treatment Difference", "setting": "[1]; Rifaximin vs Vancomycin, after initial clinical success", "result": 4.7, "unit": "%"}, {"measurement": "Clinical Success: Treatment Difference", "setting": "[1]; [3]", "result": "−6.2", "unit": "%"}, {"measurement": "Diarrhea: Treatment Difference", "setting": "[1]; [3]", "result": "−1.5", "unit": "%"}, {"measurement": "Fever: Treatment Difference", "setting": "[1]; [3]", "result": "−7.5", "unit": "%"}, {"measurement": "Severe Abdominal Pain/Discomfort: Treatment Difference", "setting": "[1]; [3]", "result": "−11.5", "unit": "%"}, {"measurement": "Adjusted mean number of unformed stools-ANOVA: Treatment Difference (95% CI)", "setting": "[1]; [4]", "result": "0.46 (−0.08, 1.00)"}, {"measurement": "Overall treatment difference in number of unformed stools-Mixed Model: Treatment Difference (95% CI)", "setting": "[1]; [4]", "result": "0.32 (−0.08, 0.72)"}, {"measurement": "Diarrhea No: % of subjects", "setting": "[1]; [5]", "result": 65, "unit": "%"}, {"measurement": "Diarrhea No: number of subjects", "setting": "[1]; [5]", "result": 71}, {"measurement": "Diarrhea Yes: % of subjects", "setting": "[1]; [5]", "result": 35, "unit": "%"}, {"measurement": "Diarrhea Yes: number of subjects", "setting": "[1]; [5]", "result": 38}, {"measurement": "Clinical Success No: % of subjects", "setting": "[1]; [6]", "result": 50, "unit": "%"}, {"measurement": "Clinical Success No: number of subjects", "setting": "[1]; [6]", "result": 59}, {"measurement": "Clinical Success Yes: % of subjects", "setting": "[1]; [6]", "result": 50, "unit": "%"}, {"measurement": "Clinical Success Yes: number of subjects", "setting": "[1]; [6]", "result": 58}, {"measurement": "Clinical Success: Treatment Difference", "setting": "[1]; [7]", "result": "−10.4", "unit": "%"}, {"measurement": "Diarrhea: Treatment Difference", "setting": "[1]; [7]", "result": "−8.1", "unit": "%"}, {"measurement": "No Recurrence of CDI: % of subjects", "setting": "[1]; [8]", "result": 91, "unit": "%"}, {"measurement": "No Recurrence of CDI: number of subjects", "setting": "[1]; [8]", "result": 61}, {"measurement": "Recurrence of CDI: % of subjects", "setting": "[1]; [8]", "result": 9, "unit": "%"}, {"measurement": "Recurrence of CDI: number of subjects", "setting": "[1]; [8]", "result": 6}, {"measurement": "Recurrence No: % of subjects", "setting": "[1]; [9]", "result": 95, "unit": "%"}, {"measurement": "Recurrence No: number of subjects", "setting": "[1]; [9]", "result": 111}, {"measurement": "Recurrence Yes: % of subjects", "setting": "[1]; [9]", "result": 5, "unit": "%"}, {"measurement": "Recurrence Yes: number of subjects", "setting": "[1]; [9]", "result": 6}, {"measurement": "Diarrhea No: % of subjects", "setting": "[1]; [10]", "result": 80, "unit": "%"}, {"measurement": "Diarrhea No: number of subjects", "setting": "[1]; [10]", "result": 86}, {"measurement": "Diarrhea Yes: % of subjects", "setting": "[1]; [10]", "result": 20, "unit": "%"}, {"measurement": "Diarrhea Yes: number of subjects", "setting": "[1]; [10]", "result": 22}, {"measurement": "Fever No: % of subjects", "setting": "[1]; [10]", "result": 91, "unit": "%"}, {"measurement": "Fever No: number of subjects", "setting": "[1]; [10]", "result": 98}, {"measurement": "Fever Yes: % of subjects", "setting": "[1]; [10]", "result": 9, "unit": "%"}, {"measurement": "Fever Yes: number of subjects", "setting": "[1]; [10]", "result": 10}, {"measurement": "Severe Abdominal Pain/Discomfort No: % of subjects", "setting": "[1]; [10]", "result": 74, "unit": "%"}, {"measurement": "Severe Abdominal Pain/Discomfort No: number of subjects", "setting": "[1]; [10]", "result": 80}, {"measurement": "Severe Abdominal Pain/Discomfort Yes: % of subjects", "setting": "[1]; [10]", "result": 26, "unit": "%"}, {"measurement": "Severe Abdominal Pain/Discomfort Yes: number of subjects", "setting": "[1]; [10]", "result": 28}, {"measurement": "Clinical Success No: % of subjects", "setting": "[1]; [11]", "result": 43, "unit": "%"}, {"measurement": "Clinical Success No: number of subjects", "setting": "[1]; [11]", "result": 50}, {"measurement": "Clinical Success Yes: % of subjects", "setting": "[1]; [11]", "result": 57, "unit": "%"}, {"measurement": "Clinical Success Yes: number of subjects", "setting": "[1]; [11]", "result": 67}, {"measurement": "Global Cure of Diarrhea Yes: % of subjects", "setting": "[1]; [12]", "result": 71, "unit": "%"}, {"measurement": "Global Cure of Diarrhea Yes: number of subjects", "setting": "[1]; [12]", "result": 83}, {"measurement": "Adjusted mean number of unformed stools-ANOVA", "setting": "[1]; during the treatment period, Rifaximin N = 117, Vancomycin N = 115", "result": 2.36}, {"measurement": "Diarrhea: % of subjects", "setting": "[1]; [13]", "result": 23, "unit": "%"}, {"measurement": "Diarrhea: number of subjects", "setting": "[1]; [13]", "result": 16}, {"measurement": "No Diarrhea: % of subjects", "setting": "[1]; [13]", "result": 77, "unit": "%"}, {"measurement": "No Diarrhea: number of subjects", "setting": "[1]; [13]", "result": 53}, {"measurement": "Diarrhea: Treatment Difference", "setting": "[1]; subgroup Age <65, at TOC, Rifaximin vs Vancomycin", "result": "−3.8", "unit": "%"}, {"measurement": "Diarrhea: % of subjects", "setting": "[1]; [14]", "result": 15, "unit": "%"}, {"measurement": "Diarrhea: number of subjects", "setting": "[1]; [14]", "result": 6}, {"measurement": "No Diarrhea: % of subjects", "setting": "[1]; [14]", "result": 85, "unit": "%"}, {"measurement": "No Diarrhea: number of subjects", "setting": "[1]; [14]", "result": 33}, {"measurement": "Diarrhea: Treatment Difference", "setting": "[1]; subgroup Age >=65, at TOC, Rifaximin vs Vancomycin", "result": 3.0, "unit": "%"}, {"measurement": "Diarrhea: % of subjects", "setting": "[1]; [15]", "result": 21, "unit": "%"}, {"measurement": "Diarrhea: number of subjects", "setting": "[1]; [15]", "result": 14}, {"measurement": "No Diarrhea: % of subjects", "setting": "[1]; [15]", "result": 79, "unit": "%"}, {"measurement": "No Diarrhea: number of subjects", "setting": "[1]; [15]", "result": 54}, {"measurement": "Diarrhea: Treatment Difference", "setting": "[1]; subgroup Female, at TOC, Rifaximin vs Vancomycin", "result": "−3.4", "unit": "%"}, {"measurement": "Diarrhea: % of subjects", "setting": "[1]; [16]", "result": 20, "unit": "%"}, {"measurement": "Diarrhea: number of subjects", "setting": "[1]; [16]", "result": 8}, {"measurement": "No Diarrhea: % of subjects", "setting": "[1]; [16]", "result": 80, "unit": "%"}, {"measurement": "No Diarrhea: number of subjects", "setting": "[1]; [16]", "result": 32}, {"measurement": "Diarrhea: Treatment Difference", "setting": "[1]; subgroup Male, at TOC, Rifaximin vs Vancomycin", "result": 1.3, "unit": "%"}, {"measurement": "Inhibition of CYP3A4", "setting": "CYP3A4", "result": "does not inhibit"}]}
